Experimental findings from patent US11046672B2, “Indolinones compounds and their use in the treatment of fibrotic diseases” (RESPIVERT LIMITED, priority 2015, dated 2021) are described below.

For series [1], the target named is VEGFR2 (Homo sapiens (Human), UniProt P35968). The experiment in a line: VEGF165 induced phosphorylation of VEGFR2 in endothelial cells (TeloHAEC, HTRF). In kind it is cell-based. The settings on record: HAEC cells; n = 1 unless otherwise indicated. (In general: TR-FRET usually uses a lanthanide donor and a delayed reading to cut background.)
Series [2] can be described thus: PAMPA permeability assay. Format: in vitro ADME. The settings on record: PAMPA. In general terms: In PAMPA a lipid-coated filter parts donor from acceptor wells.
The subject of series [3] is MRC5 cells. Kind of series: Cell viability assay in MRC5 cells (MTT).

Chain of VEGFR2 (P35968 20-1356): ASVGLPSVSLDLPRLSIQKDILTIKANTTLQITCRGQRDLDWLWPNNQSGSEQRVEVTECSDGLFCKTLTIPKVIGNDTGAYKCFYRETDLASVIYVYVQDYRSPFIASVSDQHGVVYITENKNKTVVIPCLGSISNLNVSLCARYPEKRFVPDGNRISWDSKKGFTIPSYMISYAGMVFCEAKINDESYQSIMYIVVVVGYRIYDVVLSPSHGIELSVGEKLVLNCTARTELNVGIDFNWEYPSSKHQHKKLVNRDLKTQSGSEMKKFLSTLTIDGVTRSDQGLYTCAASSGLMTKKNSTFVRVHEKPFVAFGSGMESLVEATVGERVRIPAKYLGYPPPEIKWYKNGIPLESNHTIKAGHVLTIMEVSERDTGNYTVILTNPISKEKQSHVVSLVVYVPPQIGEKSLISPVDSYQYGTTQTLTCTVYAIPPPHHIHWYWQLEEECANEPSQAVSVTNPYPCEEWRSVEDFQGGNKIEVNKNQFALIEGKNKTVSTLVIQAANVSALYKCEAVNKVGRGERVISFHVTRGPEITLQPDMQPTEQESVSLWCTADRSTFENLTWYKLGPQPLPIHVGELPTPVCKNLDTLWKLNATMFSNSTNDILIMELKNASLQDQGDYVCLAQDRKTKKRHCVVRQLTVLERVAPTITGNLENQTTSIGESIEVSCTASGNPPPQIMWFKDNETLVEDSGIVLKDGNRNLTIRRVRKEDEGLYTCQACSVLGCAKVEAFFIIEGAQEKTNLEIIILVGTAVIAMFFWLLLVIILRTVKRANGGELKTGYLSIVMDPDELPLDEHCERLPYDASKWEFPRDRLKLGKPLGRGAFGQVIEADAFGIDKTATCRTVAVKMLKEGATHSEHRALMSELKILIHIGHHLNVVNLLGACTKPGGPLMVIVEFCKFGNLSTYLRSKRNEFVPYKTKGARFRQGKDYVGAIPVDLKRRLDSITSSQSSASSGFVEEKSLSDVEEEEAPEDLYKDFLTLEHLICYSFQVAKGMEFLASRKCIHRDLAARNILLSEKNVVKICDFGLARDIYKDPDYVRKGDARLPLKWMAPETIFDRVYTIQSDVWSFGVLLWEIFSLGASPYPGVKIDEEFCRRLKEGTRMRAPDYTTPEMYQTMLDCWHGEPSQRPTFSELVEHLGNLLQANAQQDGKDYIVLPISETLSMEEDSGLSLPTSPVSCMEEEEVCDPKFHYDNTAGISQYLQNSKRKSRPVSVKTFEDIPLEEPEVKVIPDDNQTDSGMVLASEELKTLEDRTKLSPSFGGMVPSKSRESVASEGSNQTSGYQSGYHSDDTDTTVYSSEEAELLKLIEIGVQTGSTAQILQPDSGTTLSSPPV

For `COC(=O)c1cc2c(cc1C)/C(=C(/Nc1ccc(C(=O)NOCCCN3CCN(C)CC3)cc1)c1ccccc1)C(=O)N2` [Example 64], the IC50 (usually the concentration that inhibits the measured activity by half) in series [1] was determined as 0.0322 µM. The recovery at 5 hr, 10 μM in series [2] (pH 7, PAMPA, donor and acceptor compartments) amounted to 59.4%. Besides, in series [2] (pH 7, pH 7, 10 μM, 5 hr), the Papp (in general, the rate of passage across a membrane or cell layer, normalised by area and donor concentration) at 5 h, 10 μM came to 0.0679 ×10⁻⁶ cm/s. Further, the “Cell viability at 100 nM (%)” value in series [3] (100 nM) came out at 86.5%. The “Cell viability at 300 nM (%)” value in series [3] (300 nM) is 88.6%. For the same compound, in series [3] (1000 nM), the “Cell viability at 1000 nM (%)” value is listed as 73.7%.
